According to US20100029643A1 (ASTRAZENECA AB, priority 2006, published 2010):

target: T1, Edg-1/S1P1 receptor (Homo sapiens, UniProt P21453); experiment: In vitro cell based receptor activation assay - Transfluor assay (assay I or II; beta-arrestin GFP relocalization after S1P stimulation); conditions: at 3.50 μM (titrated from top concentration 10 μM)
T1 construct: expressed in transfected cells; host or cells: human osteogenic sarcoma U2OS cells: Edg-1 Transfluor U2OS WT Clone #37 (assay I), Edg-1 Transfluor U2OS Clone #3 (assay II)
T1 sequence (P21453 whole entry): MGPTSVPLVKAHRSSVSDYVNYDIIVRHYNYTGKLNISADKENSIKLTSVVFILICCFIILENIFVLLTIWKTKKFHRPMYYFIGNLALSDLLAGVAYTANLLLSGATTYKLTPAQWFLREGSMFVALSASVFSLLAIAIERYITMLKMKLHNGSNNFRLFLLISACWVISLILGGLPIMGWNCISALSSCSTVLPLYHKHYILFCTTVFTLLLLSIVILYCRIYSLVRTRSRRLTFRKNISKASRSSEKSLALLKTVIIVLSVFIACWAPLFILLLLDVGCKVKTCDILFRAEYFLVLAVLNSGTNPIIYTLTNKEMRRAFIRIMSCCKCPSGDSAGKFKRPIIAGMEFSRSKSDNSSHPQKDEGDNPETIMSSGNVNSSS
From the text: The following assays can be used to measure the effects of the compounds of the present invention as S1P1/Edg1 inhibitors.
I. In Vitro Cell Based Receptor Activation Assay-Transfluor Assay
(§1) This cell-based assay was designed to assess the ability of small molecule antagonists to inhibit activation of the GPCR S1P1 in the presence of its cognate ligand S1P. The assay used technology initially developed by Norak Biosciences (Xsira Pharmaceutical) and presently owned by Molecular Devices. A human osteogenic sarcoma (U2OS) cell line overexpressing the Edg-1/S1P1) receptor as well as a beta-arrestin/green fluorescent protein (GFP) construct hereafter termed Edg-1 Transfluor U2OS WT Clone #37 was employed.
Using a high content screening approach (Cellomics Arrayscan), receptor activity was measured by assessment of the relocalization of beta-arrestin GFP in response to stimulation of Edg-1 by SIP. Specifically, Edg-1 Transfluor U2OS WT Clone #37 cells were plated at a density of 6250 cells in 40 μL medium per well in 384 well plastic bottomed microtiter plates (BD Falcon) and incubated overnight at 37° C./5% CO2. Prior to screening, compounds were dissolved in 100% dimethyl sulfoxide (DMSO) to a final stock concentration of 10 mM. Compounds were then serially diluted at 30× final concentration in Edg-1 Transfluor cell growth medium containing […] using the Tecan Genesis instrument. These 30× plates were then diluted to 6× final concentration with Edg-1 Transfluor growth medium just prior to dosing. Cells were then dosed with 10 μL per well of 6× compound dilutions or 6% DMSO and pre-incubated for 15 minutes at room temperature. Cell plates were dosed with 10 μL per well 6× S1P Edg-1 Transfluor growth medium, then incubated for 45 minutes at 37° C./5% CO2. Final concentration in the well of DMSO was 1%, compound was IX (3-fold, 9 point IC50 dilutions starting at 100 μM final concentration), and either 375 nM or […] SIP ligand. Cell plates were then fixed by adding 50 μL per well of 5% formaldehyde in 1× Dulbecco's phosphate buffered saline (DPBS) directly and incubating for 30 minutes at room temperature in darkness. Fixative was removed and replaced with 50 μL per well of 1×DPBS, after which cells were stained with 10 μg/mL final concentration of Hoechst 33342 (Molecular Probes) for 15 minutes at room temperature in darkness. Stain was then removed from the plates and replaced with 50 μL per well of 1×DPBS using the BioTek ExL405 plate washer. Plates were then sealed and analysed on the Cellomics Arrayscan using the GPCR signalling algorithm. EC50 values were then calculated using IDBS ActivityBase software.
II. In Vitro Cell Based Receptor Activation Assay-Transfluor Assay
as §1, with “Devices (MDS Analytical Technologies).” for “Devices.”, “U2OS” for “U2OS WT”, “#3” for “#37”
Using a high content screening approach (Molecular Devices Image Express), receptor activity was measured by assessment of the relocalization of beta-aiTestin GFP in response to stimulation of Edg-1 by S1P. Specifically, Edg-1 Transfluor U2OS Clone #3 cells were plated at a density of 6250 cells in 44 μL medium per well in 384 well plastic bottomed microtiter plates (BD Falcon) and incubated overnight at 37° C./5% CO2. Prior to screening, compounds were dissolved in 100% dimethyl sulfoxide (DMSO) to a final stock concentration of 10 mM. Compounds were then serially diluted at 10× final concentration in Edg-1 Transfluor cell growth medium containing 6% DMSO using the BioMek instrument. […]

inhibition at 3.5 µM [%]	Compound
94.4	CCn1c([C@@H](C)NS(=O)(=O)c2ccc(Cl)cc2)nc2ccc(CO)cc21 (stereo in doubt) [Example 68, 4-Chloro-N-{1-[1-ethyl-6-(hydroxymethyl)-1H-benzimidazol-2-yl]ethyl}benzenesulfonamide]
83.4	CCn1c([C@@H](C)NS(=O)(=O)c2ccc(C#N)cc2)nc2cnc(C3CC3)cc21 (stereo in doubt) [Example 183, 4-Cyano-N-[1-(6-cyclopropyl-1-ethyl-1H-imidazo[4,5-c]pyridin-2-yl)-ethyl]-benzenesulfonamide]
94	CCC(NS(=O)(=O)c1ccc(Cl)cc1)c1nc2ccccc2n1CC (stereo not drawn) [Example 2, 4-Chloro-N-[1-(1-ethyl-1H-benzoimidazol-2-yl)propyl]-benzenesulfonamide]

same assay, conditions: at 3.70 μM (titrated from top concentration 100 μM)

inhibition at 3.7 µM [%]	Compound	% inhibition
91.3	CCOC(=O)c1ccc2nc([C@@H](C)NS(=O)(=O)c3ccc(Cl)cc3)n(CC)c2c1 (stereo in doubt) [Example 67, Ethyl 2-(1-{[(4-chlorophenyl)sulfonyl]amino}-ethyl)-1-ethyl-1H-benzimidazole-6-carboxylate]	
21.7	CCn1c([C@@H](C)NS(=O)(=O)c2ccc(Cl)cc2)nc2ccc(C(=O)N(C)C)cc21 (stereo in doubt) [Example 72, 2-(1-{[(4-Chlorophenyl)sulfonyl]amino}-ethyl)-1-ethyl-N,N-dimethyl-1H-benzimidazole-6-carboxamide]	
8.88	CCn1c([C@@H](C)NS(=O)(=O)c2ccc(Cl)cc2)nc2ccc(C(=O)N3CCOCC3)cc21 (stereo in doubt) [Example 73, 4-Chloro-N-{1-[1-ethyl-6-(morpholin-4-ylcarbonyl)-1H-benzimidazol-2-yl]ethyl}benzenesulfonamide]	
94.9	CCn1c([C@@H](C)NS(=O)(=O)c2ccc(Cl)cc2)nc2ccc(SC)cc21 (stereo in doubt) [Example 79, 4-Chloro-N-{1-[1-ethyl-6-(methylthio)-1H-benzimidazol-2-yl]ethyl}benzenesulfonamide]	
79.7	CCn1c(C(Cc2cccnc2)NS(=O)(=O)c2ccc(Cl)cc2)nc2ccccc21 (stereo not drawn) [Example 7, 4-Chloro-N-[1-(1-ethyl-1H-benzimidazol-2-yl)-2-pyridin-3-yl-ethyl]benzene-sulfonamide]	
91.2	CC(NS(=O)(=O)c1ccc(Cl)cc1)c1nc2ccccc2n1C (stereo not drawn) [Example 8, 4-Chloro-N-[1-(1-methyl-1H-benzimidazol-2-yl)ethyl]-benzenesulfonamide]	

The remaining lines, values behind:

Compound	inhibition at 3.7 µM [%]	% inhibition
4-Chloro-N-{1-[1-ethyl-6-(methylsulfonyl)-1H-benzimidazol-2-yl]ethyl}benzenesulfonamide [Example 80]		[drawing 92] 4-Chloro-N-{1-[1-ethyl-6- (methylsulfonyl)-1H- benzimidazol-2-yl]ethyl}benzenesulfonamide (22.57% inhibition at 3.70 μM)
CCn1c(C(NS(=O)(=O)c2ccc(Cl)cc2)C(C)C)nc2ccccc21 (stereo not drawn) [Example 3, 4-Chloro-N-[1-(1-ethyl-1H-benzimidazol-2-yl)-2-methyl-propyl]benzenesulfonamide]	59	
CCn1c(C(CC(C)C)NS(=O)(=O)c2ccc(Cl)cc2)nc2ccccc21 (stereo not drawn) [Example 4, 4-Chloro-N-[1-(1-ethyl-1H-benzimidazol-2-yl)-3-methyl-butyl}benzenesulfonamide]	66.4	
CCn1c(C(Cc2ccccc2)NS(=O)(=O)c2ccc(Cl)cc2)nc2ccccc21 (stereo not drawn) [Example 5, 4-Chloro-N-[1-(1-ethyl-1H-benzimidazol-2-yl)-2-phenyl-ethyl]benzenesulfonamide]	73.2	
CCn1c(C(Cc2ccc(F)cc2)NS(=O)(=O)c2ccc(Cl)cc2)nc2ccccc21 (stereo not drawn) [Example 6]	77.7	

same assay, conditions: one or the other of the two Transfluor assays; Edg-1 Transfluor U2OS cells, S1P ligand

EC50 [µM]	Compound
> 33	CCn1c([C@H](C)NS(=O)(=O)c2ccc(Cl)cc2)nc2cnccc21 [4-chloro-N-[(1S)-1-(1-ethyl-1H-imidazo[4,5-c]pyridin-2-yl)ethyl]benzenesulfonamide]
